Square brackets hold non-standard residues; d marks the D form. Peptide text beside a SMILES is read from it. ξ: configuration not given here. Ile(3ξ) = CCC(C)[C@H](N)C(=O)O; Thr(3ξ) = CC(O)[C@H](N)C(=O)O; Nle = CCCC[C@H](N)C(=O)O
Experiments:
[1] = Multiple dose study in healthy volunteers (Examples 4 and 7), pharmacokinetics of plasma apraglutide, non-compartmental analysis; settings: human, plasma
Experimental: 23 healthy adult volunteers received 6 weekly subcutaneous doses of apraglutide (1, 5, or 10 mg) or placebo and were followed for a further 6 weeks after the last dose. Blood collections were controlled for diet, lifestyle, and diurnal effects. […] PK data underwent non-compartmental analysis and PD data were analyzed by ANCOVA.
As with citrulline, a statistical steady-state analysis per dose level was performed for apraglutide using Helmert's approach.

[2] = system: patients with SBS-IF or SBS-II; experiment: Safety assessments (adverse events) in Phase 2 metabolic balance trial (Example 6)
Experimental: Patients were treated with once weekly 5 mg apraglutide for four weeks. Apraglutide was provided as a freeze-dried powder for reconstitution in sterile water prior to injection, and treatments were administered as subcutaneous injections in the abdominal area. A 72-hour metabolic balance study was performed at baseline and at the end of the treatment period (starting one day after the fourth and last apraglutide injection). Each 72-hour metabolic balance study was performed during a five-day hospital admission. On the day of admission, patients were instructed to create a 24-hour drinking menu based on their habitual oral fluid intake. The drinking menu was to be followed during each balance study. On the second day of admission, just after the patients had urinated and emptied their stoma bags or defecated, the balance study was initiated. […] Daily PS and compliance to the predefined drinking menu was documented during admissions.
First, second and fourth apraglutide injections were performed at the hospital. Safety assessments included observation for injection site reactions, vital signs, blood samples, electrocardiogram (ECG), urinalysis and body weight. They were performed at baseline, during each injection of the trial drug, four days after first injection, at the end of treatment and 4-6 weeks after last dosing at the end of the trial, as shown in Table 20. Liver enzymes were measured prior to each drug administration.

CCCC[C@H](NC(=O)[C@H](CCC(=O)O)NC(=O)[C@H](CC(=O)O)NC(=O)[C@H](CO)NC(=O)[C@H](Cc1ccccc1)NC(=O)[C@H](CO)NC(=O)CNC(=O)[C@H](CC(=O)O)NC(=O)CNC(=O)[C@@H](N)Cc1c[nH]cn1)C(=O)N[C@H](Cc1ccccc1)C(=O)N[C@H](C(=O)N[C@H](C(=O)N[C@@H](CC(C)C)C(=O)N[C@@H](CC(=O)O)C(=O)N[C@@H](CC(C)C)C(=O)N[C@@H](CC(C)C)C(=O)N[C@@H](C)C(=O)N[C@@H](C)C(=O)N[C@@H](CCCNC(=N)N)C(=O)N[C@@H](CC(=O)O)C(=O)N[C@@H](Cc1ccccc1)C(=O)N[C@H](C(=O)N[C@@H](CC(N)=O)C(=O)N[C@@H](Cc1c[nH]c2ccccc12)C(=O)N[C@@H](CC(C)C)C(=O)N[C@H](C(=O)N[C@@H](CCC(N)=O)C(=O)N[C@H](C(=O)N[C@@H](CCCCN)C(=O)N[C@H](C(=O)N[C@H](C(=O)N[C@@H](CC(=O)O)C(N)=O)C(C)O)C(C)CC)C(C)O)C(C)CC)C(C)CC)C(C)CC)C(C)O (stereo partly drawn) [apraglutide, L-histidyl-glycyl-L-aspartyl-glycyl-L-seryl-L-phenylalanyl-L-seryl-L-aspartyl-L-glutamyl-L-norleucyl-D-phenylalanyl-L-threonyl-Lisoleucyl-L-leucyl-L-aspartyl-L-leucyl-L-leucyl-L-alanyl-L-alanyl-L-arginyl-L-aspartyl-L-phenylalanyl-L-isoleucyl-L-asparaginyl-Ltryptophanyl-L-leucyl-L-isoleucyl-L-glutaminyl-L-threonyl-L-lysyl-L-isoleucyl-L-threonyl-Laspartic acid amide] (H-HGDGSFSDE[Nle][dF][Thr(3ξ)][Ile(3ξ)]LDLLAARDF[Ile(3ξ)]NWL[Ile(3ξ)]Q[Thr(3ξ)]K[Ile(3ξ)][Thr(3ξ)]D-NH2)
AUC(0-t) ([1]; sc, 5 mg, AUCtau, arithmetic mean ± SD, (first dose)): 7210 ng·h/mL
CL/F ([1]; sc, 10 mg): 13.1 mL/min
AUC(0-t) ([1]; sc, 10 mg, AUClast, Arithmetic mean ± standard deviation, dose #6 (N = 5)): 13800 ng·h/mL
AUC(0-t) ([1]; sc, 10 mg, AUCtau, arithmetic mean ± SD, (first dose)): 11400 ng·h/mL
half-life ([1]; sc, 10 mg, Half-life indicated by PK parameters, healthy volunteers, 6 weekly SC doses of 1, 5 or 10 mg): 72 h
Cmax ([1]; subcutaneous, 1 mg, arithmetic mean ± SD, (first dose)): 13.9 ± 11.2 ng/mL
Cmax ([1]; subcutaneous, 1 mg, arithmetic mean ± SD, dose #6): 24.2 ± 9.22 ng/mL
Cmax ([1]; subcutaneous, 1 mg, geometric mean (geometric coefficient of variation %), (first dose)): 12.3 ± 146 ng/mL
Tmax ([1]; subcutaneous, 1 mg, tmax at dose 1 and 6, 1 mg): ~24 h
Tmax ([1]; subcutaneous, 1 mg, tmax, median, (first dose)): 24 h
Tmax ([1]; subcutaneous, 1 mg, tmax, median, dose #6): 21.6 h
Vd/F ([1]; subcutaneous, 5 mg): 50.2 ± 61 L
Cmax ([1]; subcutaneous, 5 mg, arithmetic mean ± SD, (first dose)): 94.1 ± 50.5 ng/mL
Cmax ([1]; subcutaneous, 5 mg, arithmetic mean ± SD, dose #6): 125 ± 72.1 ng/mL
Cmax ([1]; subcutaneous, 5 mg, geometric mean (geometric coefficient of variation %), (first dose)): 84.1 ± 55.1 ng/mL
Cmax ([1]; subcutaneous, 5 mg, geometric mean (geometric coefficient of variation %), dose #6): 108 ± 64.6 ng/mL
half-life ([1]; subcutaneous, 5 mg, Half life, 5 mg, following dose #6): 72.7 ± 23 h
half-life ([1]; subcutaneous, 5 mg, t1/2, lower section headed Arithmetic mean ± standard deviation, dose #6 (N = 4)): 69.8 h
Tmax ([1]; subcutaneous, 5 mg, tmax at dose 1 and 6, 5 mg): ~24 h
Tmax ([1]; subcutaneous, 5 mg, tmax, median, (first dose)): 24 h
Tmax ([1]; subcutaneous, 5 mg, tmax, median, dose #6): 24 h
Vd/F ([1]; subcutaneous, 10 mg): 81.9 ± 98.6 L
Cmax ([1]; subcutaneous, 10 mg, arithmetic mean ± SD, (first dose)): 137 ± 55 ng/mL
Cmax ([1]; subcutaneous, 10 mg, arithmetic mean ± SD, dose #6): 182 ± 97.6 ng/mL
Cmax ([1]; subcutaneous, 10 mg, geometric mean (geometric coefficient of variation %), (first dose)): 128 ± 39.9 ng/mL
half-life ([1]; subcutaneous, 10 mg, Half life, 10 mg, following dose #6): 76.3 ± 27.6 h
half-life ([1]; subcutaneous, 10 mg, t1/2, lower section headed Arithmetic mean ± standard deviation, dose #6 (N = 5)): 72 h
Tmax ([1]; subcutaneous, 10 mg, tmax at dose 1 and 6, 10 mg): ~48 h
Tmax ([1]; subcutaneous, 10 mg, tmax, median, (first dose)): 45.6 h
Tmax ([1]; subcutaneous, 10 mg, tmax, median, dose #6): 45.6 h
Injection site reactions (transient), number of patients ([2]; 5 mg): One
Patients with serious adverse events ([2]; 5 mg): two
Serious adverse events assessed as related to the trial drug (abdominal pain) ([2]; 5 mg): One
Serious adverse events, number ([2]; 5 mg): three
Safety and tolerability in words ([2]; 5 mg once weekly, four weeks, SBS-II and SBS-IF): safe and well tolerated
Abdominal pain, number of patients ([2]; SBS-IF (N = 4), 5 mg): 2
Any adverse event, number of patients ([2]; SBS-IF (N = 4), 5 mg): 4
Flatulence, number of patients ([2]; SBS-IF (N = 4), 5 mg): 1
Fluid retention, number of patients ([2]; SBS-IF (N = 4), 5 mg): 1
Gastrointestinal stoma complication, number of patients ([2]; SBS-IF (N = 4), 5 mg): 2
Gastrointestinal stoma output abnormal, number of patients ([2]; SBS-IF (N = 4), 5 mg): 1
Gastrointestinal stoma output decreased, number of patients ([2]; SBS-IF (N = 4), 5 mg): 3
Nausea, number of patients ([2]; SBS-IF (N = 4), 5 mg): 4
Polyuria, number of patients ([2]; SBS-IF (N = 4), 5 mg): 1
Stoma complication, number of patients ([2]; SBS-IF (N = 4), 5 mg): 3
Weight increased, number of patients ([2]; SBS-IF (N = 4), 5 mg): 0
Abdominal pain, number of patients ([2]; SBS-II (N = 4), 5 mg): 1
Any adverse event, number of patients ([2]; SBS-II (N = 4), 5 mg): 4
Flatulence, number of patients ([2]; SBS-II (N = 4), 5 mg): 3
Fluid retention, number of patients ([2]; SBS-II (N = 4), 5 mg): 1
Gastrointestinal stoma complication, number of patients ([2]; SBS-II (N = 4), 5 mg): 3
Gastrointestinal stoma output abnormal, number of patients ([2]; SBS-II (N = 4), 5 mg): 3
Gastrointestinal stoma output decreased, number of patients ([2]; SBS-II (N = 4), 5 mg): 3
Nausea, number of patients ([2]; SBS-II (N = 4), 5 mg): 1
Polyuria, number of patients ([2]; SBS-II (N = 4), 5 mg): 2
Stoma complication, number of patients ([2]; SBS-II (N = 4), 5 mg): 3
Weight increased, number of patients ([2]; SBS-II (N = 4), 5 mg): 2
Abdominal pain, number of patients ([2]; Total (N = 8), 5 mg): 3
Any adverse event, number of patients ([2]; Total (N = 8), 5 mg): 8
Flatulence, number of patients ([2]; Total (N = 8), 5 mg): 4
Fluid retention, number of patients ([2]; Total (N = 8), 5 mg): 2
Gastrointestinal stoma complication, number of patients ([2]; Total (N = 8), 5 mg): 5
Gastrointestinal stoma output abnormal, number of patients ([2]; Total (N = 8), 5 mg): 4
Gastrointestinal stoma output decreased, number of patients ([2]; Total (N = 8), 5 mg): 6
Nausea, number of patients ([2]; Total (N = 8), 5 mg): 5
Polyuria, number of patients ([2]; Total (N = 8), 5 mg): 3
Stoma complication, number of patients ([2]; Total (N = 8), 5 mg): 6
Weight increased, number of patients ([2]; Total (N = 8), 5 mg): 2

Reference: patent US11766470B2, “Manufacture, formulation and dosing of apraglutide” (VectivBio AG, priority 2020, dated 2023)
